Laboratory results taken from PubChem BioAssay AID1388 (Sanford-Burnham Center for Chemical Genomics, 2008).
Activity calls are given as the source filed them.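 How the source made its calls: active means no detectable phosphorylated eIF2 alpha band on the immunoblot of stressed cell lysates; inactive means phospho eIF2 alpha band still visible on the blot.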

Target: Eukaryotic translation initiation factor 2 subunit 1 (Rattus norvegicus) (UniProt P68101)
Experiment: inhibition of eIF2α phosphorylation under ER stress, late-stage follow-up, mechanism study for ER stress cell death project, cell-based, thapsigargin, Western blot (AID 1388)
Settings: CSM14.1 cells, phospho-eIF2a Western blot

Eukaryotic translation initiation factor 2 subunit 1 (Rattus norvegicus), sequence (P68101 whole entry, looked up): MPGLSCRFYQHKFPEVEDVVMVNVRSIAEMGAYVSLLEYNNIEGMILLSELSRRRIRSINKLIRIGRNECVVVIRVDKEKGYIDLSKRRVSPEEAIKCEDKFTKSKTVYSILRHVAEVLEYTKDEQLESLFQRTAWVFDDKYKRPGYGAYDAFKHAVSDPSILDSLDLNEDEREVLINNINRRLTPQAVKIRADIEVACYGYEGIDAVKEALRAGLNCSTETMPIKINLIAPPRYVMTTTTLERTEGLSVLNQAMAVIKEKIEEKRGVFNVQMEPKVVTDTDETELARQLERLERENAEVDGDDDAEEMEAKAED

Row | SMILES | outcome
1 | CCOc1cc(C2Nc3ccccc3NC3=C2C(=O)CC(c2ccc(OC)cc2)C3)cc(Cl)c1O (stereo unspecified) | inactive
2 | CSc1ccc(C2Nc3ccccc3NC3=C2C(=O)CC(c2ccccc2)C3)cc1 (stereo unspecified) | inactive
3 | COc1ccc(C2CC(=O)C3=C(C2)Nc2ccccc2NC3c2cccc(Br)c2)cc1OC (stereo unspecified) | inactive
4 | CCCOc1ccc(C2Nc3ccccc3NC3=C2C(=O)CC(c2ccc(OC)c(OC)c2)C3)cc1 (stereo unspecified) | inactive
5 | O=C1CC(c2ccccc2)CC2=C1C(c1c(F)cccc1Cl)Nc1ccccc1N2 (stereo unspecified) | inactive
6 | CC1(C)CC(=O)C2=C(C1)Nc1ccccc1NC2c1ccc(-c2ccccc2)cc1 (stereo unspecified) | inactive
7 | COc1ccc(C2CC(=O)C3=C(C2)Nc2ccccc2NC3c2cccc(Oc3ccccc3)c2)cc1OC (stereo unspecified) | inactive
8 | CCOc1cccc(C2Nc3ccccc3NC3=C2C(=O)CC(c2ccc(OC)cc2)C3)c1 (stereo unspecified) | inactive
9 | COc1ccc(C2CC(=O)C3=C(C2)Nc2ccccc2NC3c2cc(C)ccc2C)cc1 (stereo unspecified) | inactive
10 | COc1ccc(C2CC(=O)C3=C(C2)Nc2ccccc2NC3c2cccc(C(F)(F)F)c2)cc1OC (stereo unspecified) | inactive
11 | COc1ccc(C2CC(=O)C3=C(C2)Nc2ccccc2NC3c2ccccc2C(F)(F)F)cc1OC (stereo unspecified) | inactive
